Where a SMILES comes first, the peptide text is derived from it. Bridges are numbered along the chain shown (N, C = ends).
Tested on: Botrytis cinerea T-4
Experiment: Determination of minimum inhibitory concentration, 96-well plate spore assay with resazurin viability
Type: cell-based
Conditions: SFM supplemented with 100 mM NaCl
Description: The fungal strains of Botrytis cinerea T-4 were cultured on V8 growth medium. Fungal spores were harvested by flooding the fungal growth plates with sterile water. The spore suspension was filtered through two layers of Miracloth, centrifuged at 13,600 rpm for 1 min, washed, and re-suspended in low-salt Synthetic Fungal Medium (SFM) (U.S. Pat. No. 6,316,407). The spore suspension of each fungal pathogen was adjusted to equivalent spore density using a hemocytometer ([…]).
Anti-fungal activity of NCR13_WT and NCR13_V2 against B. cinerea was assessed using the 2-fold dilution series of each peptide. The antifungal activity was determined spectrophotometrically using the 96-well plate assay (Sagaram et al., 2011). The 45 μL of the peptide dilution ([…]) was added to each well of the microtiter plate containing 45 μL of (˜10^5 spores/ml) the spore suspension. The quantitative fungal growth inhibition was determined by measuring the absorbance at 595 nm using a (Tecan Infinite M200 ProTecan Systems Inc., San Jose, CA) microplate reader after 48 h. The fungal cell viability was determined using the resazurin cell viability assay (Chadha S & Kale SP, 2015; Li et al.; 2019). After incubation of the pathogen/peptide mixture for 48 h, 10 μl of 0.1% resazurin solution was added to each well and re-incubated overnight. […]

## CC[C@H](C)[C@@H]1NC(=O)[C@@H]2CSSC[C@H](NC(=O)[C@@H]3CCCN3C(=O)[C@H](CCCCN)NC(=O)[C@@H](N)[C@@H](C)O)C(=O)N[C@@H](CCC(N)=O)C(=O)N[C@@H](CO)C(=O)N[C@@H](CC(=O)O)C(=O)N[C@@H](CCCCN)C(=O)N[C@@H](CC(=O)O)C(=O)N[C@H]3CSSC[C@H](NC(=O)[C@H](Cc4ccccc4)NC(=O)CNC(=O)[C@H](CC(N)=O)NC1=O)C(=O)N[C@@H](CCCCN)C(=O)N[C@H](C(=O)N[C@H](C(=O)N[C@@H](CCCNC(=N)N)C(=O)O)C(C)C)CSSC[C@H](NC(=O)[C@H](C)NC(=O)[C@H](Cc1ccccc1)NC(=O)[C@H](CCCCN)NC(=O)[C@H](CCCCN)NC3=O)C(=O)N[C@@H](CCCNC(=N)N)C(=O)N[C@@H](CCCCN)C(=O)N1CCC[C@H]1C(=O)N[C@@H](CCCCN)C(=O)N[C@@H](C(C)C)C(=O)N1CCC[C@H]1C(=O)N[C@@H](CCCCN)C(=O)N2 [CaNCR13] (H-TKPCQSDKDCKKFACRKPKVPKCINGFCKCVR-OH; disulfide 4-23, 10-28, 15-30)
  MIC (SFM + 100 mM NaCl): No Activity

— patent publication US20240270800A1, “ANTIMICROBIAL CaNCR PEPTIDE VARIANTS” (Donald Danforth Plant Science Center, priority 2021, published 2024)
